Results on two compounds are retold here after patent publication US20120264678A1, “METHODS OF USING [3.2.0] HETEROCYCLIC COMPOUNDS AND ANALOGS THEREOF FOR TREATING INFECTIOUS DISEASES” (priority 2007, published 2012).

pEC50: −log10 of the molar value.

One data set deals with proteasome (Homo sapiens, UniProt Q99436). The data set can be described thus: Trypsin-like inhibitory activity of the proteasome (summary). It counts as biochemical. Particulars: proteasome source not stated.
In data set [1] the test system is NF-κB/IκB signaling pathway. The data set can be described thus: TNF-α stimulated HEK293 cells, IκBα phosphorylation and degradation. It counts as cell-based, human. Particulars: HEK293 cells pre-treated 1 hour, then TNF-α stimulation. From the text:
Treatment of HEK293 cells (human embryonic kidney) with Tumor Necrosis Factor-alpha (TNF-α) induces phosphorylation and proteasome-mediated degradation of IκBα followed by NF-κB activation.

A further data set relates to NF-κB. The data set can be described thus: NF-κB/Luc 293 luciferase reporter assay with TNF-α stimulation. It counts as cell-based, human. Particulars: NF-κB/Luc 293 cells, pretreatment before TNF-α. An excerpt: (§1) Furthermore, a stable HEK293 clone (NF-κB/Luc 293) was generated carrying a luciferase reporter gene under the regulation of 5×NF-κB binding sites.
In data set [2] the test system is Mycobacterium tuberculosis. The data set can be described thus: Survival assays of Mycobacterium tuberculosis on agar plates after nitrite exposure. It counts as cell-based. Particulars: plating on agar after 6 days of exposure; present-tense example without data.
The test system of the next data set is IκBα, p21 and p27. As to the kind of experiment: Western blot analyses in NF-κB/Luc 293 cells. It counts as cell-based, human.
Source text: as §1

Data set [3] is described as follows: Maximum tolerated dose determination, intravenous, female BALB/c mice. It counts as in vivo. An excerpt:
In vivo studies were designed to determine the MTD of Salinosporamide A when administered intravenously to female BALB/c mice.

Data set [4] addresses T1, proteasome chymotrypsin-like activity in Packed Whole Blood Lysate (Mus musculus, UniProt O55234).
T1 construct: The supernatant (Packed Whole Blood Lysate, PWBL) was transferred to a fresh tube; from tissue; host or cells: packed whole blood cells of Swiss-Webster mice, hypotonic lysate
T1 sequence (O55234 60-264): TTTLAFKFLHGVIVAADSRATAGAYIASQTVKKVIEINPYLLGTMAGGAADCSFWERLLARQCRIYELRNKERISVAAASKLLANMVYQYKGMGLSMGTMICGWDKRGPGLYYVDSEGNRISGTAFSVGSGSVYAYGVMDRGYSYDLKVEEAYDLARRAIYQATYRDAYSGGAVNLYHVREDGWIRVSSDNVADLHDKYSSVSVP
The data set can be described thus: Whole blood proteasome activity (PWBL assay) after dosing of mice. It counts as in vivo. The following applies: male Swiss-Webster mice. The protocol: In brief, frozen whole blood samples were thawed on ice for one hour, and resuspended in 700 μL of ice cold 5 mM EDTA, pH 8.0 in order to lyse the cells by hypotonic shock. This represents approximately 2-3 times the volume of the packed whole blood cells. Lysis was allowed to proceed for one hour, and the cellular debris was removed by centrifugation at 14,000×g for 10 minutes. The supernatant (Packed Whole Blood Lysate, PWBL) was transferred to a fresh tube, and the pellet discarded. Protein concentration of the PWBL was determined by BCA assay (Pierce) using BSA as a standard.
Proteasome activity was determined by measuring the hydrolysis of a fluorogenic substrate specific for the chymotrypsin-like activity of proteasomes (suc-LLVY-AMC, Bachem Cat. 1-1395). […] The reactions were initiated by the addition of 10 μL of 0.4 mM suc-LLVY-AMC (prepared by diluting a 10 mM solution of the peptide in DMSO 1:25 with assay buffer), and incubated in a fluorometer (Labsystems Fluoroskan) at 37° C. Hydrolysis of the substrate results in the release of free AMC, which was measured fluorometrically by using λex=390 nm and λem=460 nm. The rate of hydrolysis in this system is linear for at least one hour. The hydrolysis rate of each sample is then normalized to relative fluorescent units per milligram of protein (RFU/mg).
The vehicle control consisted of 2% DMSO in 10% solutol. […]

The next data set deals with any other known protease. Particulars: Meng et al., 1999; cited from earlier work.
The mark [5] stands for this setting: NF-κB/Luc 293 cells, Western blot.

With `C[C@@]12OC(=O)[C@]1([C@@H](O)[C@@H]1C=CCCC1)NC(=O)[C@@H]2CCCl` [Salinosporamide A], the trypsin-like inhibitory activity at proteasome is recorded as approximately 10 nM. Moreover, the “phosphorylated IκBα level” value in [1] was “promoted the accumulation of phosphorylated IκBα”. Further, the luciferase activity result in the data set on NF-κB is given as “decreases activity”. For the same compound, the “antimycobacterial effect of nitrite” value in data set [2] is reported as “able to augment the antimycobacterial effect of nitrite”. In addition, the “levels of cell cycle regulatory proteins p21 and p27” value in the data set with IκBα, p21 and p27 is “increase the levels”. Further, in the data set with IκBα, p21 and p27 (setting [5]), the “degradation of total IκBα” value is “decreased the degradation of total IκBα” and the phosphorylated-IκBα level result was “promoted the accumulation of phosphorylated-IκBα”. Further, in [3] (during the course of the experiment), the behavioral changes result is recorded as “No behavioral changes were noted”. In addition, in data set [3] (i.v. daily for five consecutive days (qdx5)), the well tolerated dose result is recorded as “up to 0.1 mg/kg”. Besides, the tolerated dose entry in data set [3] (single intravenous dose (qdx1)) was “up to 0.25 mg/kg”. Further, in data set [4] (blood 90 min after administration, dose dependent (FIG. 4)), the “proteasomal activity in PWBL” value is reported as “profound decrease in proteasomal activity in PWBL”. In addition, the “activity upon oral administration (PWBL proteasome inhibition)” value in data set [4] (oral dosing) is reported as “active upon oral administration”. The pEC50 in the data set “In vitro cytotoxicity” was 6.70 to 8.00.
Consider `CC[C@H](C)[C@H](NC(=O)[C@H]([C@@H](C)CC)N(C)C(C)=O)C(=O)N[C@H](C(=O)N[C@@H](CC(C)C)C(=O)[C@@]1(C)CO1)[C@@H](C)O` [Epoxomicin], for which the “inhibitory activity towards other proteases” value in the data set with any other known protease is given as “no inhibitory activity towards any other known protease”.
